Results taken from EP1156045A1, “AMIDE DERIVATIVES AND DRUG COMPOSITIONS” (Nippon Shinyaku Co., Ltd., priority 1999, dated 2000).
Structures can show the parent of a compound that is named as a salt.

Experiments:
Acute toxicity = type: in vivo; settings: mice; orally, 300 mg/kg suspension; observed for a week after administration
Protocol: Each of the compounds in Examples 1, 5, 6, 33, 34, 39, and 48 was administered.

TGF-β = assay: Antagonistic action against TGF-β (type I procollagen α2 promoter-luciferase reporter, TGF-β1 stimulation); type: cell-based; settings: mink lung epithelial cells (Mv1Lu); drug 1 µg/ml, TGF-β1 10 ng/ml; 24 hours; luciferase activity; read-out: Rate of inhibition (%)
Protocol: The test was carried out according to the method described in J. Clin. Invest., 86, 1489-1495 (1990) and J. Biol. Chem. 265, 13351-13356 (1990). A chimera plasmid was produced in which the promoter region of type I procollagen α2 gene was ligated with a luciferase gene. This plasmid was then transfected into mink lung epithelial cells (Mv1Lu) to produce a cell line stably expressing the luciferase gene under the control of the […]. The drug (1 µg/ml) and TGF-β1 (10 ng/ml) were added to Mv1Lu cells, which were then cultured for 24 hours. Then, the activity of luciferase in the cells was measured by a chemiluminescence method. The rate of inhibition was calculated from the following formula, the rate of inhibition being defined as 100% when the measured luciferase activity was equal to that in the absence of stimulation with TGF-β1: Rate of inhibition = (Lb-Lc)/(Lb-La) × 100 [formula] In this formula, La represents the luciferase activity in the absence of stimulation with TGF-β1, Lb represents the luciferase activity in the presence of stimulation with TGF-β1, and Lc represents the luciferase activity in the presence of TGF-β1 and the test drug.

TGF-β1 = assay: Inhibition of TGF-β production (TGF-β1 released into the medium, ELISA); type: cell-based; settings: human mesangial cells immortalized with SV40, cultured 4 days, TGF-β1 released during the last 2 days; for inhibition at 1 µg/mL: Mesangial cell, read-out: Rate of inhibition (%)
Protocol: The test was carried out according to the method described in Jpn. J. Pharmacol, 60, 91-96 (1992). That is, human mesangial cells immortalized with SV40 were cultured in 24-well plates, and then the medium was changed to a serum-free medium. The test drugs were added at concentrations of 1 µg/ml or 10 µg/ml, and the cells were cultured for 4 days. The amounts of TGF-β1 (a major type of-TGF-β) released into the medium during the last 2 days were quantified by ELISA kits. The rate of inhibition (%) was calculated from the following formula: Rate of inhibition = (Ta-Tb)/Ta × 100 [formula] In this formula, Ta represents the amount of TGF-β1 released into the medium in the absence of the test drug, and Tb represents the amount of TGF-β1 released into the medium in the presence of the test drug.

[1] = tested on: promoter region of the TGF-β1 gene; assay: Inhibitory effect on expression of TGF-β mRNA (TGF-β1 promoter-luciferase reporter, TNF-α stimulation); type: cell-based; settings: mink lung epithelial cells (Mv1Lu); drug 1 µg/ml, TNF-α 10 ng/ml; 24 hours; luciferase activity; read-out: Rate of inhibition (%)
Protocol: The inhibitory effect of the compounds of the present invention on TGF-β production was evaluated by measuring the inhibition of TGF-β mRNA expression according to the method described in J. Biol. Chem., 264, 402-408 (1989). A chimera plasmid was produced in which the promoter region of the TGF-β1 gene was ligated with a luciferase gene. This plasmid was then transfected into mink lung epithelial cells (Mv1Lu) to produce a cell line stably expressing the luciferase gene under the control of the TGF-β1 promoter. The drug (1 µg/ml) and TNF-α (10 ng/ml) were added to Mv1Lu cells, which were then cultured for 24 hours. Then the activity of luciferase in the cells was measured by a chemiluminescence method. The rate of inhibition was calculated from the following formula, the rate of inhibition being defined as 100% when the measured luciferase activity was equal to that in the absence of stimulation with TNF-α: Rate of inhibition = (Le-Lf)/(Le-Ld) × 100 [formula] In this formula, Ld represents the luciferase activity in the absence of TNF-α, Le represents the luciferase activity in the presence of TNF-α, and Lf represents the luciferase activity in the presence of TNF-α and the test drug.

Row | SMILES | deaths (Acute toxicity) | inhibition at 1 µg/mL (TGF-β) [%] | inhibition at 1 µg/mL (TGF-β1; concentration 1 µg/ml) [%] | inhibition at 1 µg/mL [1] [%] | Rate of inhibition (%) (TGF-β1; concentration 1 µg/ml) | Rate of inhibition (%) (TGF-β1; concentration 10 µg/ml)
1 | Cc1ccc2c(c1)c(C(=O)N1CCN(c3ccccn3)CC1)c(-c1ccccc1)n2C.Cl [Example 1, 1-(1,5-Dimethyl-2-phenylindol-3-ylcarbonyl)-4-(2-pyridyl)piperazine hydrochloride] | No deaths were observed | 31.2 |  |  |  | 
2 | Cn1c(-c2ccccc2)c(C(=O)N2CC[N+]([O-])(c3ccccn3)CC2)c2ccccc21 [Example 5, 1-(1-Methyl-2-phenylindol-3-ylcarbonyl)-4-(2-pyridyl)piperazine-4-oxide] | No deaths were observed | 27.4 | 20.9 | 28.2 |  | 
3 | Cl.Cn1c(-c2ccccc2)c(C(=O)N2CCN(c3ccccn3)CC2)c2ccccc21 [Example 6, 1-(1-Methyl-2-phenylindol-3-ylcarbonyl)-4-(2-pyridyl)piperazine hydrochloride] | No deaths were observed | 44.6 | 30.2 | 50.1 |  | 
4 | Cc1ccc2c(c1)c(C(=O)N1CCN(c3cccnc3)CC1)c(-c1ccccc1)n2C.Cl.Cl [Example 33, 1-(1,5-Dimethyl-2-phenylindol-3-ylcarbonyl)-4-(3-pyridyl)piperazine dihydrochloride] | No deaths were observed | 50.6 |  | 43.2 |  | 
5 | Cc1ccc2c(c1)c(C(=O)N1CCN(c3ccncc3)CC1)c(-c1ccccc1)n2C.Cl [Example 34, 1-(1,5-Dimethyl-2-phenylindol-3-ylcarbonyl)-4-(4-pyridyl)piperazine hydrochloride] | No deaths were observed | 33.8 |  |  |  | 
6 | Cc1cc2c(C(=O)N3CCN(c4ccncc4)CC3)c(-c3ccccc3)n(C)c2cc1C.Cl [Example 39, 1-(1,5,6-Trimethyl-2-phenylindol-3-ylcarbonyl)-4-(4-pyridyl)-piperazine hydrochloride] | No deaths were observed | 52.4 |  | 27.4 |  | 
7 | Cl.Cn1c(-c2ccccc2)c(C(=O)N2CCN(c3ccc([N+](=O)[O-])cn3)CC2)c2ccccc21 [Example 48, 1-(1-Methyl-2-phenylindol-3-ylcarbonyl)-4-(5-nitro-2-pyridyl)-piperazine hydrochloride] | No deaths were observed | 63.7 |  | 74.7 |  | 
8 | Cc1ccc2c(c1)c(C(=O)N1CCN(c3ccc([N+](=O)[O-])cn3)CC1)c(-c1ccccc1)n2C [Example 58, 1-(1,5-Dimethyl-2-phenylindol-3-ylcarbonyl)-4-(5-nitro-2-pyridyl)-piperazine hydrochloride] |  | 34.8 | 27.6 | 30.2 |  | 
9 | COc1ccc2c(c1)c(C(=O)NC1CC3CCC(C1)N3C)c(-c1ccccc1)n2C.Cl (stereo not drawn) [Example 61, N-(endo-8-Methyl-8-azabicyclo[3.2.1]octa-3-yl)-5-methoxy-1-methyl-2-phenylindole-3-carboxamide hydrochloride] |  |  |  |  | 69.7 | 
10 | Cc1ccc2c(C(=O)N[C@@H]3C[C@H]4CC[C@@H](C3)N4C)c(-c3ccccc3)n(C)c2c1.Cl [Example 63, N-(endo-8-Methyl-8-azabicyclo[3.2.1]octa-3-yl)-1,6-dimethyl-2-phenylindole-3-carboxamide hydrochloride] |  |  |  |  | 40.7 | 
11 | Cc1ccc2c(c1)c(C(=O)N[C@H]1C[C@H]3CC[C@@H](C1)N3C)c(-c1ccccc1)n2C.Cl [Example 117, N-(endo-8-Methyl-8-azabicyclo[3.2.1]octa-3-yl)-1,5-dimethyl-2-phenylindole-3-carboxamide hydrochloride] |  |  |  |  | 47.4 | 
12 | Cn1c(-c2ccccc2)c(C(=O)N2CCCN(c3ccccn3)CC2)c2ccccc21 [Example 118, 1-(1-Methyl-2-phenylindol-3-ylcarbonyl)-4-(2-pyridyl)-homopiperazine dihydrochloride] |  | 51.8 |  | 48.8 |  | 
13 | Cc1ccc2c(c1)c(C(=O)N1CCCN(c3ccccn3)CC1)c(-c1ccccc1)n2C [Example 119, 1-(1,5-Dimethyl-2-phenylindol-3-ylcarbonyl)-4-(2-pyridyl)-homopiperazine hydrochloride] |  | 53.8 |  | 39.2 |  | 
14 | Cn1c(-c2ccccc2)c(C(=O)N2CCCN(c3cccnc3)CC2)c2ccccc21 [Example 120, 1-(1-Methyl-2-phenylindol-3-ylcarbonyl)-4-(3-pyridyl)homopiperazine hydrochloride] |  | 44.9 |  | 27.7 |  | 
15 | Cc1ccc2c(c1)c(C(=O)N1CCCN(c3cccnc3)CC1)c(-c1ccccc1)n2C [Example 121, 1-(1,5-Dimethyl-2-phenylindol-3-ylcarbonyl)-4-(3-pyridyl)-homopiperazine hydrochloride] |  | 59 |  | 40.6 |  | 
16 | Cc1ccc2c(c1)c(C(=O)N1CCCN(c3ccc([N+](=O)[O-])cn3)CC1)c(-c1ccccc1)n2C [Example 129, 1-(1,5-Dimethyl-2-phenylindol-3-ylcarbonyl)-4-(5-nitro-2 pyridyl)homopiperazine] |  | 64.3 |  |  |  | 
17 | Cc1ccc2c(c1)c(C(=O)N1CCCN(c3ccc(NS(C)(=O)=O)cn3)CC1)c(-c1ccccc1)n2C [Example 174, 1-(1,5-Dimethyl-2-phenylindol-3-ylcarbonyl)-4-(5-methane-sulfonylamino-2-pyridyl)homopiperazine] |  | 49.8 |  | 24.8 |  | 
18 | COC(=O)c1ccc(N2CCCN(C(=O)c3c(-c4ccccc4)n(C)c4ccc(C)cc34)CC2)nc1 [Example 178, 1-(1,5-Dimethyl-2-phenylindol-3-ylcarbonyl)-4-(5-carbomethoxy-2-pyridyl)-homopiperazine] |  | 102 |  | 43 |  | 
19 | CC(=O)Nc1ccc(N2CCCN(C(=O)c3c(-c4ccccc4)n(C)c4ccc(C)cc34)CC2)nc1 [Example 180, 1-(1,5-Dimethyl-2-phenylindol-3-ylcarbonyl)-4-(5-acetylamino-2-pyridyl)homopiperazine] |  | 48.3 |  | 25.5 |  | 
20 | CCN(CC)S(=O)(=O)c1ccc(N2CCCN(C(=O)c3c(-c4ccccc4)n(C)c4ccc(C)cc34)CC2)nc1 [Example 183, 1-(1,5-Dimethyl-2-phenylindol-3-ylcarbonyl)-4-(5-diethylamino-sulfonyl-2-pyridyl)homopiperazine] |  | 79.3 |  | 46.9 |  | 
21 | Cc1ccc(=O)n(-c2ccccc2)c1 [Perfenidone, reference compound] |  |  |  |  |  | 1.7
